Data taken from patent US7250434B2, “CCK-1 receptor modulators” (Janssen Pharmaceutica N.V., priority 2003, dated 2007).

Each compound was assayed against T1, CCK-1 receptor (Homo sapiens, UniProt P32238) (assay: [125I]-BH-CCK-8S competition binding to membranes of CHO-K1 cells stably transfected with the CCK-1 receptor). Settings: membranes of CCK-1 transfected CHO-K1 cells; 20 pM [125I]-BH-CCK-8S; 0.3 μM PD-134,308 present; 60 min at 21±3° C.; Cheng-Prusoff.
T1 construct: expressed in transfected cells; membranes
T1 sequence (P32238 1-428): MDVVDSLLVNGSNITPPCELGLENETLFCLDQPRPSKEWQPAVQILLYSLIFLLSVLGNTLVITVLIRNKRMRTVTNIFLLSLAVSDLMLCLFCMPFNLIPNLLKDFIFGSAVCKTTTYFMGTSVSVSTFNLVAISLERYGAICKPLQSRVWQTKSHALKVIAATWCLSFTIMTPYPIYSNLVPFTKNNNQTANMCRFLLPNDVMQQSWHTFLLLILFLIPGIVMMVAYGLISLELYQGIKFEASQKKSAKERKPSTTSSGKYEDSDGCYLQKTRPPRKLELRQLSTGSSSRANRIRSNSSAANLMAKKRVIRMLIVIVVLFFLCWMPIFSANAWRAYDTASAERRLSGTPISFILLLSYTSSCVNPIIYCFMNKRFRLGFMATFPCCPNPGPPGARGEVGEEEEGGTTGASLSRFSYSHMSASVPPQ
Procedure: CHO-K1 cells that had undergone stable transfection with the CCK-1 receptor were grown in DMEM supplemented with L-glutamine (2 mM), penicillin (50 units/mL) and streptomycin (50 μg/mL). Cells were cultured under continuous G418 selection (2 mM) and were harvested using a rubber cell scraper. CHO-K1 cells were sub-cultured a maximum of ten times before being reseeded from the original stocks.
Membranes were prepared from the stably transfected CHO-K1 cells. Frozen cell pellets (−40° C.) were thawed in 14 mL of buffer A (10 mM HEPES, 130 mM NaCl, 4.7 mM KCl, 5 mM MgCl, 1 mM EGTA and 15.4 mg/100 mL bacitracin at pH 7.2), adapted from Harper et al. (Br. J. Pharmacol. 1996, 118:1717-1726). The thawed pellets were homogenized using a Polytron PT-10 (7×1 s). The homogenates were centrifuged for 5 min at 1500 rpm (600×g), and the resulting pellets were discarded. The supernatants were re-centrifuged in order to collect the receptor-membrane pellets (25 min 15,000 rpm; 39,800×g), which were re-suspended in buffer A.
All assays were conducted in 96-well plates (GF/B millipore filter plates) using buffer A, with 0.3 μM PD-134,308, for the dilutions. The CCK-2 receptor ligand was included to eliminate the contribution of this receptor subtype to the binding. For the optimal cell number determination experiments 20 pM [^125I]-BH-CCK-8S (50 μL 60 pM solution) was incubated with a range of cell concentrations (2.5×105 to 12.5×10^5 cells/well) in a total volume of 150 μL. Total binding of [^125I]-BH-CCK-8S was determined in the presence of 15 μL of buffer A. Non-specific binding of [^125I]-BH-CCK-8S was determined in the presence of 15 μL of 100 μM 2-naphthalenesulphonyl L-aspartyl-(2-phenethyl)amide (2-NAP: see R. A. Hull et al. Br. J. Pharmacol. 1993, 108:734-740), a CCK-1 receptor selective antagonist that is structurally unrelated to the radioligand [^125I]-BH-CCK-8S. The assay preparation was incubated for 1 h at 21±3° C., and then the assay was terminated upon rapid filtration of the preparation under reduced pressure. The loaded filters were washed three times using undiluted PBS (100 μL), and then the residues were transferred to 5 mL scintillation tubes. Bound radioactivity was determined using a gamma counter (count time=1 min). From these experiments a cell concentration of 1 pellet in 40 mL of buffer (2.5×10^6 cells/mL) was chosen for use in other assays (below). To validate the radioligand concentration and incubation time for the assay, saturation and kinetic binding studies were also conducted (see M. F. Morton, The Pharmacological Characterization of Cholecystokinin Receptors in the Human Gastrointestinal Tract. PhD Thesis, University of London, 2000). The affinity of novel compounds was estimated by incubating membrane preparations with 15 μL of competing ligand (0.1 pM-1 mM) for 60 min at 21±3° C. The assay was then terminated according to the procedure outlined above.
The pKi values were determined using the equation of Y.-C. Cheng and W. H. Prusoff (Biochem. Pharmacol. 1973, 22(23):3099-3108):
[formula] To circumvent problems associated with computer-assisted data analysis of compounds with low affinity, the data obtained in the current study were weighted according to a method described by Morton (2000). In brief, 100% and 0% specific binding were defined independently using total binding and binding obtained in the presence of a high concentration of the reference antagonist, 2-NAP.
`COc1ccc(-c2[nH]c(/C=C(\C(=O)O)c3cccc(C(F)(F)F)c3)nc2-c2ccc(Cl)c(Cl)c2)cc1` [Example 10, (Z)-3-[4-(3,4-Dichloro-phenyl)-5-(4-methoxy-phenyl)-1H-imidazol-2-yl]-2-(3-trifluoromethyl-phenyl)-acrylic acid] showed a Ki of 10 nM.
Compound `COc1ccc(-c2[nH]c(CC(C(=O)O)c3cccc(Cl)c3)nc2-c2ccc(Cl)c(Cl)c2)cc1` (stereo not drawn) [Example 25, 2-(3-Chloro-phenyl)-3-[4-(3,4-dichloro-phenyl)-5-(4-methoxy-phenyl)-1H-imidazol-2-yl]-propionic acid] has a Ki of 31.6 nM.
Compound `COc1ccc(-c2[nH]c(CC(C(=O)O)c3ccc(C)cc3)nc2-c2ccc(Cl)c(Cl)c2)cc1` (stereo not drawn) [Example 29, 3-[4-(3,4-Dichloro-phenyl)-5-(4-methoxy-phenyl)-1H-imidazol-2-yl]-2-p-tolyl-propionic acid] has a Ki of 126 nM.
`COc1ccc(-c2[nH]c(/C=C(/C(=O)O)c3cccc4ccccc34)nc2-c2ccc(Cl)c(Cl)c2)cc1` [Example 13, (E)-3-[4-(3,4-Dichloro-phenyl)-5-(4-methoxy-phenyl)-1H-imidazol-2-yl]-2-naphthalen-1-yl-acrylic acid] showed a Ki of 200 nM.
`COc1ccc(-c2[nH]c(/C=C(/C(=O)O)c3cccc(Cl)c3)nc2-c2ccc(Cl)c(Cl)c2)cc1` [Example 18, (E)-2-(3-Chloro-phenyl)-3-[4-(3,4-dichloro-phenyl)-5-(4-methoxy-phenyl)-1H-imidazol-2-yl]-acrylic acid] gave a Ki of 63.1 nM.
`Cc1cccc(/C(=C\c2nc(-c3cc(Cl)ccc3Cl)c(-c3ccc4c(c3)OCO4)[nH]2)C(=O)O)c1` [Example 19, (E)-3-[5-Benzo[1,3]dioxol-5-yl-4-(2,5-dichloro-phenyl)-1H-imidazol-2-yl]-2-m-tolyl-acrylic acid] was tested, and the Ki was 15.8 nM.
`COc1ccc(-c2[nH]c(/C=C(/C(=O)O)c3cccc(C)c3)nc2-c2ccc(Cl)c(Cl)c2)cc1` [Example 17, (E)-3-[4-(3,4-Dichloro-phenyl)-5-(4-methoxy-phenyl)-1H-imidazol-2-yl]-2-m-tolyl-acrylic acid] showed a Ki of 79.4 nM.
With `O=C(O)/C(=C\c1nc(-c2cc(Cl)ccc2Cl)c(-c2ccc3c(c2)OCO3)[nH]1)c1cccc(Cl)c1` [Example 1, (Z)-3-[5-Benzo[1,3]dioxol-5-yl-4-(2,5-dichloro-phenyl)-1H-imidazol-2-yl]-2-(3-chloro-phenyl)-acrylic acid] the Ki was 2 nM.
`Cc1ccc(/C(=C\c2nc(-c3cc(Cl)ccc3Cl)c(-c3ccc4c(c3)OCO4)[nH]2)C(=O)O)cc1` [Example 22, (E)-3-[5-Benzo[1,3]dioxol-5-yl-4-(2,5-dichloro-phenyl)-1H-imidazol-2-yl]-2-p-tolyl-acrylic acid] showed a Ki of 25.1 nM.
For `Cc1ccc(/C(=C/c2nc(-c3cc(Cl)ccc3Cl)c(-c3ccc4c(c3)OCO4)[nH]2)C(=O)O)cc1` [Example 6, (Z)-3-[5-Benzo[1,3]dioxol-5-yl-4-(2,5-dichloro-phenyl)-1H-imidazol-2-yl]-2-p-tolyl-acrylic acid], the Ki was 3.98 nM.
`O=C(O)C(Cc1nc(-c2ccc(F)cc2)c(-c2ccc(F)cc2)[nH]1)c1cccc2ccccc12` (stereo not drawn) [Example 34, 3-[4,5-Bis-(4-fluoro-phenyl)-1H-imidazol-2-yl]-2-naphthalen-1-yl-propionic acid] showed a Ki of 10000 nM.
For `O=C(O)/C(=C/c1nc(-c2cc(Cl)ccc2Cl)c(-c2ccc3c(c2)OCO3)[nH]1)c1cccc(C(F)(F)F)c1` [Example 21, (E)-3-[5-Benzo[1,3]dioxol-5-yl-4-(2,5-dichloro-phenyl)-1H-imidazol-2-yl]-2-(3-trifluoromethyl-phenyl)-acrylic acid], the Ki was 20 nM.
With `O=C(O)/C(=C/c1nc(-c2cc(Cl)ccc2Cl)c(-c2ccc3c(c2)OCO3)[nH]1)c1cccc2ccccc12` [Example 23, (E)-3-[5-Benzo[1,3]dioxol-5-yl-4-(2,5-dichloro-phenyl)-1H-imidazol-2-yl]-2-naphthalen-1-yl-acrylic acid] the Ki was 79.4 nM.
With `COc1ccc(-c2[nH]c(CC(C(=O)O)c3cccc4ccccc34)nc2-c2ccc(Cl)c(Cl)c2)cc1` (stereo not drawn) [Example 26, 3-[4-(3,4-Dichloro-phenyl)-5-(4-methoxy-phenyl)-1H-imidazol-2-yl]-2-naphthalen-1-yl-propionic acid] the Ki was 39.8 nM.
For `O=C(O)/C(=C\c1nc(-c2cc(Cl)ccc2Cl)c(-c2ccc3c(c2)OCO3)[nH]1)c1cccc2ccccc12` [Example 4, (Z)-3-[5-Benzo[1,3]dioxol-5-yl-4-(2,5-dichloro-phenyl)-1H-imidazol-2-yl]-2-naphthalen-1-yl-acrylic acid], the Ki was 2.51 nM.
Compound `Cc1ccc(-c2nc(CC(C(=O)O)c3cccc(C)c3)n(C)c2-c2ccc(C)cc2)cc1` (stereo not drawn) [Example 31, 3-(1-Methyl-4,5-di-p-tolyl-1H-imidazol-2-yl)-2-m-tolyl-propionic acid] has a Ki of 39.8 nM.
`O=C(O)C(Cc1nc(-c2ccccc2Cl)c(-c2ccccc2Cl)[nH]1)c1cccc2ccccc12` (stereo not drawn) [Example 32, 3-[4,5-Bis-(2-chloro-phenyl)-1H-imidazol-2-yl]-2-naphthalen-1-yl-propionic acid] gave a Ki of 398 nM.
`O=C(O)/C(=C/c1nc(-c2cc(Cl)ccc2Cl)c(-c2ccc3c(c2)OCO3)[nH]1)c1ccc(Cl)cc1` [Example 20, (E)-3-[5-Benzo[1,3]dioxol-5-yl-4-(2,5-dichloro-phenyl)-1H-imidazol-2-yl]-2-(4-chloro-phenyl)-acrylic acid] showed a Ki of 15.8 nM.
With `O=C(O)/C(=C/c1nc(-c2cc(Cl)ccc2Cl)c(-c2ccc3c(c2)OCO3)[nH]1)c1cccc(Cl)c1` [Example 2, (E)-3-[5-Benzo[1,3]dioxol-5-yl-4-(2,5-dichloro-phenyl)-1H-imidazol-2-yl]-2-(3-chloro-phenyl)-acrylic acid] the Ki was 3.16 nM.
Compound `O=C(O)/C(=C\c1nc(-c2cc(Cl)ccc2Cl)c(-c2ccc3c(c2)OCO3)[nH]1)c1ccc(Cl)cc1` [Example 5, (Z)-3-[5-Benzo[1,3]dioxol-5-yl-4-(2,5-dichloro-phenyl)-1H-imidazol-2-yl]-2-(4-chloro-phenyl)-acrylic acid] has a Ki of 3.16 nM.
For `COc1cccc(-c2nc(CC(C(=O)O)c3cccc4ccccc34)[nH]c2-c2cccc(OC)c2)c1` (stereo not drawn) [Example 33, 3-[4,5-Bis-(3-methoxy-phenyl)-1H-imidazol-2-yl]-2-naphthalen-1-yl-propionic acid], the Ki was 2510 nM.
`Cc1ccc(-c2nc(CC(C(=O)O)c3cccc(C)c3)[nH]c2-c2ccc(C)cc2)cc1` (stereo not drawn) [Example 30, 3-(4,5-Di-p-tolyl-1H-imidazol-2-yl)-2-m-tolyl-propionic acid] gave a Ki of 20 nM.
Work on `COc1ccc(-c2[nH]c(CC(C(=O)O)c3cccc(C(F)(F)F)c3)nc2-c2ccc(Cl)c(Cl)c2)cc1` (stereo not drawn) [Example 27, 3-[4-(3,4-Dichloro-phenyl)-5-(4-methoxy-phenyl)-1H-imidazol-2-yl]-2-(3-trifluoromethyl-phenyl)-propionic acid] yielded a Ki of 50.1 nM.
Compound `O=C(O)/C(=C\c1nc(-c2cc(Cl)ccc2Cl)c(-c2ccc3c(c2)OCO3)[nH]1)c1cccc(C(F)(F)F)c1` [Example 7, (Z)-3-[5-Benzo[1,3]dioxol-5-yl-4-(2,5-dichloro-phenyl)-1H-imidazol-2-yl]-2-(3-trifluoromethyl-phenyl)-acrylic acid] has a Ki of 5.01 nM.
